According to patent US10259846B2, “Bouvardin derivatives and therapeutic uses thereof” (The Regents of the University of Colorado, a body corporate, priority 2012, dated 2019):
Read-outs that look alike come from different tables or passages of the source.

How the values were obtained:
U87MG glioma cells = assay: Cell growth assay (CellTiter-Glo), U87MG glioma cells; type: cell-based; conditions: single agent; 10 μM and 100 μM; 6 days (FIG. 10)
Protocol: (§1) Two glioma cell lines were used (U87MG and T98G). The growth inhibitory effects of chemical compounds were evaluated using CellTiter-Glo® Luminescent Cell Viability Assay (Promega G7570). The CellTiter-Glo® Reagent lyses cells and generates a luminescent signal proportional to the amount of ATP present. In this assay, 4,000 viable cells were plated in 100 μL of growth medium in 96-well plates (Corning). Following an overnight incubation, drugs were added in varying concentrations and incubated for 6 days. 100 μL of CellTiter-Glo® Reagent was added to each well. Plates were incubated with mixing at room temperature for 30 minutes. Luminescence of each well was measured using an automated plate reader.

T98G glioma cells = assay: Cell growth assay (CellTiter-Glo), T98G glioma cells; type: cell-based; conditions: for inhibitory effects on cell growth: single agent, 10 μM and 100 μM, 6 days (FIG. 11)
Protocol: as §1

rabbit reticulocytes = assay: In vitro translation assay (luciferase mRNA); type: biochemical; conditions: luciferase activity; 15 minutes at 37° C.
Protocol: In vitro translation assays were performed in rabbit reticulocytes (Promega) according to manufacturer's instruction, in the presence or absence of drug at final concentrations shown. Luciferase mRNA provided in the kit was used at a final concentration of 1 μg/μl. The reaction samples were incubated for 15 minutes at 37° C. and quenched by dilution with water. Luciferase activity was measured using a plate reader Multi-Mode Microplate Reader (Synergy 2 by BioTek) immediately after luciferase substrate addition.

HS294T melanoma cells [1] = assay: Clonogenic assay (sulfhorhodamine B), HS294T; type: cell-based, human
Protocol: HS294T melanoma cells were plated at a low concentration to allow for the formation of single colonies. These cells were then treated with meta Br-N-29-H RA-VII alone, PLX4032 alone and a combination of the two and then processed using the quantitative sulfhorhodamine B assay.

mice = conditions: cited from earlier work
[2] = tested on: A375 (higher grade) melanoma cell line; assay: Cell growth assay IC50, A375 melanoma cell line; type: cell-based, human
Protocol: as §1, with “Seven cell lines, lung cancer cell line H157, HNC” for “Two glioma”, “lines Det562 and FaDu, and melanoma cell lines WM35, A375, 1205Lu and HS294T” for “lines”, “studied.” for “used (U87MG and T98G).”, “˜4,000” for “4,000”, “reader. Survival was plotted against drug concentration to compute IC50.” for “reader.”
(§2) The ability of bouvardin and meta Br-N-29-H RA-VII to inhibit the growth of Melanoma cells in culture was studied. […] Both compounds show greater efficacy in higher grade, metastatic melanoma cell lines than in a lower grade melanoma line.

[3] = tested on: WM35 (lower grade, radial phase) melanoma cell line; assay: Cell growth assay IC50, WM35 melanoma cell line; type: cell-based, human
Protocol: as §1, with “Seven cell lines, lung cancer cell line H157, HNC” for “Two glioma”, “lines Det562 and FaDu, and melanoma cell lines WM35, A375, 1205Lu and HS294T” for “lines”, “studied.” for “used (U87MG and T98G).”, “˜4,000” for “4,000”, “reader. Survival was plotted against drug concentration to compute IC50.” for “reader.”
as §2

Melanoma cells = assay: Growth inhibition of Melanoma cells in culture, alone and combined; type: cell-based, human
Text: as §2
Synergy is seen in cell lines with a wide range of sensitivity to PLX4032, i.e. both PLX4032-sensitive and PLX4032-resistant lines.

A375 melanoma cells = assay: Exposure-time cell viability assay, A375; type: cell-based, human; conditions: IC70 concentration; viability read after 5 days
Protocol: (§3) The cell growth assays used to measure IC50 and synergy involve leaving the drug on the cells for 5 days. However, this length of time may or may not be necessary to see efficacy. To address this, two Bouvardin derivatives (meta Br-N-29-H RA-VII and mera Cl-N-29-H RA-VII) were exposed to different melanoma and head and neck cells for various amounts of time. Cells were plated at 4,000 cells per well in 96 well plates and allowed to adhere for 24 hrs before adding meta Br-N-29-H RA-VII or meta Cl-N-29-H RA-VII at an IC70 concentration for each cell line. The drug was removed after various times (12 hr, 1 day, 2 days, 3 days, 4 days) by replacement with fresh media. After 5 days, cell viability was determined using CellTiter-Glo® Luminescent Cell Viability Assay (Promega G7570), which measures ATP levels. Bouvardin or BVD at 12 hr exposure was used as a control. […] While the maximal effect of meta Br-N-29-H RA-VII was not reached at the same time for all of the lines, the drug is affecting each cell line to some degree by 24 hrs.

HS294T melanoma cells [4] = assay: Exposure-time cell viability assay, HS294T; type: cell-based, human; conditions: IC70 concentration; viability read after 5 days
Protocol: as §3

1205Lu melanoma cells = assay: Exposure-time cell viability assay, 1205Lu; type: cell-based, human; conditions: IC70 concentration; viability read after 5 days
Protocol: as §3

[5] = tested on: Det562 Head and Neck cancer cells; assay: Exposure-time cell viability assay, Det562; type: cell-based, human; conditions: IC70 concentration; viability read after 5 days
Protocol: as §3

[6] = tested on: FaDu Head and Neck cancer cells; assay: Exposure-time cell viability assay, FaDu; type: cell-based, human; conditions: IC70 concentration; viability read after 5 days
Protocol: as §3

[7] = tested on: HS294T metastatic melanoma cells; assay: Combination with PLX4032, combination index, HS294T; type: cell-based, human; conditions: combination with PLX4032, wide range of drug concentrations
Text: The dotted line indicates fraction survival expected if meta Br-N-29-H RA-VII and PLX4032 are act in an additive manner. The observed effect of the combination is […], indicating synergy. This represents a subset of a larger data set that includes the result of a wide range of drug doses. The complete dataset is in FIGS. 16 and 17.
CI of less than 1 indicates synergy, which is seen for a wide range of drug concentrations. […] This illustrates that at doses that show synergy, significant fractions of cells are killed or inhibited from growing.

HS294T melanoma cells [8] = assay: Combination with ionizing radiation, combination index, HS294T; type: cell-based, human; conditions: range of drug doses and radiation
Text: CI values are shown for a range of drug doses and radiation. CI<1 indicates synergy.

[9] = Combination Index from cell growth assays with targeted agents (FIG. 22); type: cell-based; conditions: over a range of FA (fraction affected)
Protocol: The combinations of meta Br-N-29-H RA-VII and three commercially available targeted agents (PLX4032 BRAF inhibitor, TAK-333 MEK inhibitor and PF-0491502 P13K/TOR dual inhibitor) were tested at various drug doses. Combination Index values were computed from cell growth assays as previously described (Gladstone et al., Disease Models and Mechanisms, 2012, PMID: 22344740). The tables show average CI values for the combination of meta Br-N-29-H RA-VII and each targeted agent. FA=‘fraction affected’ or fraction of cells killed, reflecting the drug doses used. The CI values that indicate three modes on drug-drug interaction are indicated in the legend and differentially shaded in the table. CI˜1 denote additive action (un-shaded). CI>1 denote antagonistic action (darker shade).

[10] = tested on: human primary fibroblasts; assay: Bouvardin on primary versus oncogene-transformed human fibroblasts; type: cell-based; conditions: fibroblasts transformed with more and more oncogenes (FIG. 16)
[11] = tested on: human primary fibroblasts; conditions: published report (Dolma et al., 2003); cited from earlier work
[12] = combination of meta Br-N-29-H RA-VII and PLX4032

Molecule: COc1ccc(C[C@H](NC(=O)[C@H](Cc2ccc(O)cc2)N(C)C(=O)OC(C)(C)C)C(=O)OCc2ccccc2)cc1Br [Compound 1-7]
- inhibitory effects on cell growth (U87MG glioma cells): potent inhibitory effects
- inhibitory effects on cell growth (T98G glioma cells): potent inhibitory effects
- inhibition of protein translation in in vitro translation assay (rabbit reticulocytes): do not appear to inhibit protein translation

Molecule: COc1ccc(C[C@H](NC(=O)[C@H](Cc2ccc(O)cc2)N(C)C(=O)OC(C)(C)C)C(=O)OCc2ccccc2)cc1B1OC(C)(C)C(C)(C)O1 [Compound 1-8]
- inhibitory effects on cell growth (U87MG glioma cells): potent inhibitory effects
- inhibitory effects on cell growth (T98G glioma cells): potent inhibitory effects
- inhibition of protein translation in in vitro translation assay (rabbit reticulocytes): do not appear to inhibit protein translation

Molecule: COc1ccc(C[C@H](NC(=O)[C@H](Cc2ccc(O)cc2)N(C)C(=O)OC(C)(C)C)C(=O)OCc2ccccc2)cc1B(O)O [Compound 1-9]
- inhibitory effects on cell growth (U87MG glioma cells): potent inhibitory effects
- inhibitory effects on cell growth (T98G glioma cells): potent inhibitory effects
- inhibition of protein translation in in vitro translation assay (rabbit reticulocytes): do not appear to inhibit protein translation

Molecule: CCCS(=O)(=O)Nc1ccc(F)c(C(=O)c2c[nH]c3ncc(-c4ccc(Cl)cc4)cc23)c1F [PLX4032, Vemurafenib, reference compound]
- survival compared to untreated cells (HS294T melanoma cells [1]; 500 nM, alone): around 60%

Molecule: COc1cccc2c1C(=O)c1c(O)c3c(c(O)c1C2=O)C[C@@](O)(C(=O)CO)C[C@@H]3O[C@H]1C[C@H](N)[C@H](O)[C@H](C)O1 [doxorubicin]
- LD50 (mice): 12.5 mg/kg

Molecule: COc1ccc(C[C@H]2C(=O)N[C@@H](C)C(=O)N(C)[C@H]3Cc4ccc(cc4)Oc4cc(c(Br)cc4OC)C[C@H](NC3=O)C(=O)N[C@H](C)C(=O)N[C@@H](C)C(=O)N2C)cc1 [meta Br-N-29-H RA-VII]
- response in cell growth assay (T98G glioma cells; T98G glioma cells (FIG. 12)): dose-dependent response
- inhibition of protein translation in in vitro translation assay (rabbit reticulocytes): dose-dependent response
- IC50 ([2]; Homo sapiens, A-375): 100 nM
- IC50 ([3]; Homo sapiens): 1170 nM
- times less effective (greater IC50) than bouvardin (Melanoma cells; Melanoma cells): 5 to 10 times
- synergy with BRAF inhibitor Vemurafenib (PLX4032) (Melanoma cells; combination, PLX4032-sensitive and PLX4032-resistant lines): synergizes best and over a wide range of meta Br-N-29-H RA-VII doses
- exposure time to maximal response (same as 5 day) (A375 melanoma cells): 2 to 3 days
- response at 12 hr exposure (A375 melanoma cells): partial response
- exposure time to maximal response (same as 5 day) (HS294T melanoma cells [4]): 3 to 4 days
- response at 12 hr exposure (HS294T melanoma cells [4]): partial response
- exposure time to maximal response (same as 5 day) (1205Lu melanoma cells): 4 days
- response at 12 hr exposure (1205Lu melanoma cells): partial response
- exposure time to maximal response [5]: 4 days
- response at 12 hr exposure [5]: partial response
- exposure time to maximal response [6]: 4 days
- response at 12 hr exposure [6]: no response
- interaction with PLX4032 (combination index; CI of less than 1 indicates synergy) [7]: synergize
- interaction with ionizing radiation (combination index; CI<1 indicates synergy) (HS294T melanoma cells [8]): shows synergy
- survival compared to untreated cells (HS294T melanoma cells [1]; 20 nM, alone): greater than 90%
- predicted survival if the two treatments were additive (HS294T melanoma cells [1]; [12]): 50%
- survival compared to untreated cells (HS294T melanoma cells [1]; [12]): less than 20%
- interaction (average Combination Index) with PF-0491502 P13K/TOR dual inhibitor [9]: displays synergy
- interaction (average Combination Index) with PLX4032 BRAF inhibitor [9]: displays synergy
- interaction (average Combination Index) with TAK-333 MEK inhibitor [9]: displays synergy

Molecule: bouvardin
- IC50 [2]: 12 nM
- IC50 [3]: 124 nM
- IC, for bouvardin [10]: decreases as human primary fibroblasts are transformed with more and more oncogenes
- LD50 (mice): 12.4 mg/kg
- IC50 in primary human cells versus transformed cells [11]: higher IC50 (lower efficacy) in primary human cells than in transformed cells
